The term IC50 denotes the concentration that inhibits the measured activity by half. A low value points to inhibition by little substance.

This is an account of results in BindingDB's records for PubMed 35080403 (Yunnan University of Chinese Medicine, 2022).

In this assay the target is Maltase-glucoamylase (Homo sapiens, UniProt O43451). Put plainly: Inhibition of Alpha-glucosidase (unknown origin).
Chain of Maltase-glucoamylase (O43451 whole entry): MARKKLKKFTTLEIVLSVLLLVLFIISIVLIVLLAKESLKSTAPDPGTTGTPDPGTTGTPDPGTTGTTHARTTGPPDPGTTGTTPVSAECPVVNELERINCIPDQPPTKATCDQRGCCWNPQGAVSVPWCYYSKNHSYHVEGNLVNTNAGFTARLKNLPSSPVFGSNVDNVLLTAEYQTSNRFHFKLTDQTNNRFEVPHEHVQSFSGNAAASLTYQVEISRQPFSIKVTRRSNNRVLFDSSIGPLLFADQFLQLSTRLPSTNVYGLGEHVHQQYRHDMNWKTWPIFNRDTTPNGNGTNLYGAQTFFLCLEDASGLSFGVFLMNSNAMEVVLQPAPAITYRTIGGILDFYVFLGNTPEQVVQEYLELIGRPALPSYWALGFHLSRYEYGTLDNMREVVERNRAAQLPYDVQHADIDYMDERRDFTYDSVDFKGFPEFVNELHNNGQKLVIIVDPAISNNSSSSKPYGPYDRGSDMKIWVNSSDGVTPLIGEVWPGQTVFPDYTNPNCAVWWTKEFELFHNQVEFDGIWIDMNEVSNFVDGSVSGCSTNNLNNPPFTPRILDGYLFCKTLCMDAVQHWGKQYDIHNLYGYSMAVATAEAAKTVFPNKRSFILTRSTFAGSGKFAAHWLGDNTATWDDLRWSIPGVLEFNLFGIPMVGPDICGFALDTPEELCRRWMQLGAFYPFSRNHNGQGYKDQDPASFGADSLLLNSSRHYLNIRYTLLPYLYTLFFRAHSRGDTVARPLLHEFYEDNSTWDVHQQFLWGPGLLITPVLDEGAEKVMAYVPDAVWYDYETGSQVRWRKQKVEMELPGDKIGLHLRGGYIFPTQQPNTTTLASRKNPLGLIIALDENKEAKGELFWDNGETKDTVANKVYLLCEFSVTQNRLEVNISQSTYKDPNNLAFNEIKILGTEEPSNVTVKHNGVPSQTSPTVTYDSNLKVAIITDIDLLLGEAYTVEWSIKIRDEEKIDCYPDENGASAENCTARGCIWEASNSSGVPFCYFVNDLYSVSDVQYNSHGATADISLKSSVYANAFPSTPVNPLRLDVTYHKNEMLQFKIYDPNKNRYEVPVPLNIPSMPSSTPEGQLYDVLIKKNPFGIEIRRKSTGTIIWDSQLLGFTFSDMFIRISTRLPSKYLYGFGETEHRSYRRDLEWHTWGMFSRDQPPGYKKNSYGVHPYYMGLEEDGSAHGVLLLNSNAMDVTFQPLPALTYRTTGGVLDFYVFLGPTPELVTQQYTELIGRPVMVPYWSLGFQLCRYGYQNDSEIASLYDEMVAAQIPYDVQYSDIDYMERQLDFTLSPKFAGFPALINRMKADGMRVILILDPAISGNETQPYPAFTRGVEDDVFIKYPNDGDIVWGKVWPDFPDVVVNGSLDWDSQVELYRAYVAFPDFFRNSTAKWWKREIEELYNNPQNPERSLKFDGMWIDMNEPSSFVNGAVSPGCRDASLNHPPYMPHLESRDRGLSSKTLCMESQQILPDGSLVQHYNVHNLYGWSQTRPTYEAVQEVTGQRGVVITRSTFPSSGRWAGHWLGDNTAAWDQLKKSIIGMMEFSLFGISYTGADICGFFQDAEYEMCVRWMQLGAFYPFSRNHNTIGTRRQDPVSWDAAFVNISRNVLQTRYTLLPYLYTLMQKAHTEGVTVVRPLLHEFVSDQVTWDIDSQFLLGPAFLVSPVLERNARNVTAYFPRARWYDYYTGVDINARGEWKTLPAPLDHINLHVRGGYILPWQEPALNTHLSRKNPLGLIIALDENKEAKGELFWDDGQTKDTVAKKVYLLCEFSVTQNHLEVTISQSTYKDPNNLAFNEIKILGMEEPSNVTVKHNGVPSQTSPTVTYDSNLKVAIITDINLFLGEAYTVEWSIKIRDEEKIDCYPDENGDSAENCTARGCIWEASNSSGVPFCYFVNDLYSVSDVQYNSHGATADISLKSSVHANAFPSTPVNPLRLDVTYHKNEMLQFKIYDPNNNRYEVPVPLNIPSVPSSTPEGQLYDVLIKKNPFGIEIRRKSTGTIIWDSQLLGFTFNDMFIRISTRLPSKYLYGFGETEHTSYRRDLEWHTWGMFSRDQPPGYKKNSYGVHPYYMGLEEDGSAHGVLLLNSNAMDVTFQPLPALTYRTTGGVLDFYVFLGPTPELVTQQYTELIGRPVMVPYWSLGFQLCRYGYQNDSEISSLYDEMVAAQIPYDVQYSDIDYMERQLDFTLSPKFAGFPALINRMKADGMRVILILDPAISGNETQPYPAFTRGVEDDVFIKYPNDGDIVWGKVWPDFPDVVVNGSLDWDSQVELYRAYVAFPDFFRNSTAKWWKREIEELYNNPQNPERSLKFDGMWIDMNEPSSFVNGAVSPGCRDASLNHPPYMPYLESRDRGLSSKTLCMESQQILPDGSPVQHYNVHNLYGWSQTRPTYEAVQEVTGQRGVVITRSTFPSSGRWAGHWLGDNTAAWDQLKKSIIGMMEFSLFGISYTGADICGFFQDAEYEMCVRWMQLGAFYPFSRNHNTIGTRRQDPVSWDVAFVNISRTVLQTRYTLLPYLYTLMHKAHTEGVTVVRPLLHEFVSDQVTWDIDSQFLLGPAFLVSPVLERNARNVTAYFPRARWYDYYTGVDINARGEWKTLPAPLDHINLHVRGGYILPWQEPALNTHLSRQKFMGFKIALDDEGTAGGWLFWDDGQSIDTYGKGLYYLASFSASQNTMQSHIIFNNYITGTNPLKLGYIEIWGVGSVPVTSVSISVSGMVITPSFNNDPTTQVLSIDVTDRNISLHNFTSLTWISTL

Consider `CC/C=C\C/C=C\CCC(=O)O[C@@]12[C@H](OC(=O)[C@@H](C)CC)[C@@H](C)[C@@]3(O)[C@@H](C(=O)C(CO)=C[C@]4(O)C(=O)C(C)=C[C@@H]34)[C@@H]1C2(C)C`, for which 15.3 µM corresponded to half-maximal inhibition (IC50).
